Literature values as cited in US20040040468A1, “Drier for printing ink and printing ink containing drier” (DAINIPPON INK AND CHEMICALS, INC., priority 2002, published 2004).

System: rat
Details: from database REGISTRY OF TOXIC EFFECTS OF CHEMICAL SUBSTANCES

Cobalt naphthenate
LD50 (rat, oral administration): 3900 mg/kg

Manganese naphthenate
LD50 (rat, oral administration): 6000 mg/kg
